Measurements reported in patent US10375956B2, “Herbicidally active 2-(substituted-phenyl)-cyclopentane-1,3-dione compounds and derivatives thereof” (Syngenta Limited, priority 2013, dated 2019).

How the values were obtained:
Type in all cases: in vivo
[1] = tested on: Amaranthus retroflexus (AMARE); experiment: Test 1 glasshouse assay, post-emergence herbicidal activity; conditions: 312 h, post-emergence (Example 1B Table 1), after 13 days, read-out: Percentage phytotoxicity AMARE
Procedure, shortened: (§1)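 Plants sprayed post-emergence after 8 days' growth with active ingredient in acetone/water (50:50) plus 0.5% Tween 20; glasshouse at 24/16° C day/night, 14 h light, 65% humidity. Visual percentage phytotoxicity scored 13 days later (100% = total damage, 0% = none).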

Setaria faberi (SETFA) [2] = experiment: as above; conditions: 312 h, post-emergence (Example 1B Table 1), after 13 days, read-out: Percentage phytotoxicity SETFA
Procedure, shortened: as §1

Lolium perenne (LOLPE) [3] = experiment: Test 2 glasshouse assay (IF50 formulation, X-77), pre-emergence herbicidal activity; conditions: 480 h, 20DAA, read-out: Percentage phytotoxicity LOLPE
Experimental: (§2) Seeds of a variety of monocotyledonous and dicotyledonous test plants are sown in standard soil in pots. The plants are cultivated for one day (for pre-emergence) or for about 12 days (for post-emergence) under controlled conditions in a glasshouse (warm climate species at 24/18° C., cool climate species at 20/16° C., both at day/night; 16 hours light; 65% humidity).
(§3) An “instant formulation”, known as the “IF50”, containing 50 g/liter (i.e. 5% w/v) of the “technical” (i.e. unformulated) active ingredient is prepared by dissolving the active ingredient in a mixture of organic solvents and emulsifier, details of which are provided in the Table below. This IF50 is then mixed with a small, variable amount of acetone to aid dissolution, before addition of a 0.2% v/v aqueous solution of the adjuvant X-77 (which is a mixture of alkyl aryl polyoxyethylene glycols and free fatty acids in isopropanol, CAS Registry number 11097-66-8), as the aqueous diluent, to form an aqueous spray solution which contains a predetermined concentration of the active ingredient (which varies depending on the application rate of the active ingredient to the plants) and 0.2% v/v of the adjuvant X-77. This aqueous spray solution is then sprayed onto the plants, after one day's cultivation (for pre-emergence), or after about 12 days' cultivation (range=10-13 days) (for post-emergence).
(§4) The test plants are then grown on, in a glasshouse (greenhouse) under controlled conditions (warm climate species at 24/18° C., cool climate species at 20/16° C., both at day/night; 16 hours light; 65% humidity) and are watered twice daily. 15 days after application of the test herbicide (15DAA) (for post-emergence), and 20 days after application of the test herbicide (20DAA) (for pre-emergence), the test plants are evaluated visually, and an assessed percentage phytotoxicity score is given for each herbicidal application on each plant species (with 100%=total damage to plant; 0%=no damage to plant).
(§5) Cool climate (“cool season”) grassy monocotyledonous weeds: Alopecurus myosuroides (ALOMY), Avena fatua (AVEFA), Lolium perenne (LOLPE).

[4] = tested on: Brachiaria plantaginea (BRAPL); experiment: as above; conditions: Urochloa plantaginea, 480 h, 20DAA, read-out: Percentage phytotoxicity BRAPL
Experimental: as §2, §3, §4
(§6) Warm climate (“warm season”) grassy monocotyledonous weeds: Setaria faberi (SETFA), Panicum miliaceum (PANMI), Sorghum vulgare Pers. (SORVU) (or Sorghum bicolor (L) Moench ssp. Bicolor), Digitaria sanguinalis (DIGSA), Echinochloa crus-galli (ECHCG), and Brachiaria plantaginea (BRAPL).

[5] = tested on: Digitaria sanguinalis (DIGSA); experiment: as above; conditions: 480 h, 20DAA, read-out: Percentage phytotoxicity DIGSA
Experimental: as §2, §3, §4, §6

[6] = tested on: Echinochloa crus-galli (ECHCG); experiment: as above; conditions: 480 h, 20DAA, read-out: Percentage phytotoxicity ECHCG
Experimental: as §2, §3, §4, §6

[7] = tested on: Panicum miliaceum (PANMI); experiment: as above; conditions: 480 h, 20DAA, read-out: Percentage phytotoxicity PANMI
Experimental: as §2, §3, §4, §6

Setaria faberi (SETFA) [8] = experiment: as above; conditions: 480 h, 20DAA, read-out: Percentage phytotoxicity SETFA
Experimental: as §2, §3, §4, §6

[9] = tested on: Sorghum vulgare Pers. (SORVU); experiment: as above; conditions: Sorghum bicolor, 480 h, 20DAA, read-out: Percentage phytotoxicity SORVU
Experimental: as §2, §3, §4, §6

[10] = tested on: Alopecurus myosuroides (ALOMY); experiment: Test 2 glasshouse assay (IF50 formulation, X-77), post-emergence herbicidal activity; conditions: 360 h, 15 DAA, visual score, read-out: Post-emergence herbicidal activity (percentage phytotoxicity) ALOMY; for pest or weed control at 30 g/ha: application rate 30 g/ha; for pest or weed control at 125 g/ha: application rate 125 g/ha
Experimental: as §2, §3, §4, §5

Avena fatua (AVEFA) = experiment: as above; conditions: 360 h, 15 DAA, visual score, read-out: Post-emergence herbicidal activity (percentage phytotoxicity) AVEFA; for pest or weed control at 30 g/ha: application rate 30 g/ha; for pest or weed control at 125 g/ha: application rate 125 g/ha
Experimental: as §2, §3, §4, §5

Lolium perenne (LOLPE) [11] = experiment: as above; conditions: 360 h, 15 DAA, visual score, read-out: Post-emergence herbicidal activity (percentage phytotoxicity) LOLPE; for pest or weed control at 30 g/ha: application rate 30 g/ha; for pest or weed control at 125 g/ha: application rate 125 g/ha
Experimental: as §2, §3, §4, §5

[12] = tested on: Abutilon theophrasti (ABUTH); experiment: Test 1 glasshouse assay, post-emergence herbicidal activity; conditions: 312 h, post-emergence (Example 1B Table 1), after 13 days, read-out: Percentage phytotoxicity ABUTH
Procedure, shortened: as §1

[13] = tested on: Zea mays (ZEAMX, corn/maize); experiment: as above; conditions: 312 h, post-emergence (Example 1B Table 1), after 13 days, read-out: Percentage phytotoxicity ZEAMX
Procedure, shortened: as §1

Row | Structure (SMILES) | pest or weed control at 62.5 g/ha [1] | pest or weed control at 250 g/ha [1] | pest or weed control at 62.5 g/ha (Setaria faberi (SETFA) [2]) | pest or weed control at 250 g/ha (Setaria faberi (SETFA) [2]) | pest or weed control at 125 g/ha (Lolium perenne (LOLPE) [3]) | pest or weed control at 125 g/ha [4] | pest or weed control at 125 g/ha [5] | pest or weed control at 125 g/ha [6] | pest or weed control at 125 g/ha [7] | pest or weed control at 125 g/ha (Setaria faberi (SETFA) [8]) | pest or weed control at 125 g/ha [9] | pest or weed control at 30 g/ha [10] | pest or weed control at 125 g/ha [10] | pest or weed control at 30 g/ha (Avena fatua (AVEFA)) | pest or weed control at 125 g/ha (Avena fatua (AVEFA)) | pest or weed control at 30 g/ha (Lolium perenne (LOLPE) [11]) | pest or weed control at 125 g/ha (Lolium perenne (LOLPE) [11]) | pest or weed control at 250 g/ha (Lolium perenne (LOLPE) [3]) | pest or weed control at 250 g/ha [5] | pest or weed control at 250 g/ha [6] | other results
1 | C#CCC1CC(=O)C(c2c(C)cc(-c3ccc(F)cc3)cc2C)C1=O (centres unmarked) [Compound A1, 2-[4-(4-fluorophenyl)-2,6-dimethyl-phenyl]-4-prop-2-ynylcyclopentane-1,3-dione] | 30% | 70% | 90% | 100% | 80% | 90% | 100% | 90% | 100% | 100% | 90% | 60% | 80% | 70% | 100% | 70% | 80% | – | – | – | –
2 | C#CCC1CC(OC(C)=O)=C(c2c(C)cc(-c3ccc(F)cc3)cc2C)C1=O (centres unmarked) [Compound A45] | 20% | 80% | 90% | 100% | 90% | 90% | 90% | 80% | 100% | 90% | 80% | 70% | 90% | 70% | 90% | 80% | 100% | – | – | – | –
3 | C#CCC1CC(=O)C(c2c(F)cc(-c3ccc(Cl)cc3)cc2Cl)C1=O (centres unmarked) [Compound A6, 2-[2-chloro-4-(4-chlorophenyl)-6-fluorophenyl]-4-prop-2-ynylcyclopentane-1,3-dione] | – | 70% | – | 100% | – | – | – | – | – | – | – | – | 80% | – | 70% | – | 30% | 30% | 20% | 50% | pest or weed control at 30 g/ha ([12]; 30 g/ha): 40%; pest or weed control at 250 g/ha ([12]; 250 g/ha): 70%; pest or weed control at 30 g/ha ([1]; 30 g/ha): 60%; pest or weed control at 30 g/ha (Setaria faberi (SETFA) [2]; 30 g/ha): 100%; pest or weed control at 30 g/ha ([13]; 30 g/ha): 100%; pest or weed control at 250 g/ha ([13]; 250 g/ha): 100%; pest or weed control at 250 g/ha [7]: 0%; pest or weed control at 250 g/ha (Setaria faberi (SETFA) [8]): 0%; pest or weed control at 250 g/ha [9]: 40%; pest or weed control at 250 g/ha ([10]; application rate 250 g/ha): 100%; pest or weed control at 250 g/ha (Avena fatua (AVEFA); application rate 250 g/ha): 80%; pest or weed control at 250 g/ha (Lolium perenne (LOLPE) [11]; application rate 250 g/ha): 70%
4 | C#CCC1CC(=O)C(c2c(CC)cc(C)cc2CC)C1=O (centres unmarked) [Compound A25, 2-(2,6-diethyl-4-methyl-phenyl)-4-(prop-2-ynyl)-cyclopentane-1,3-dione] | – | – | – | – | – | – | – | – | – | – | – | 50% | 80% | 80% | 100% | 90% | 100% | 90% | 100% | 100% | pest or weed control at 250 g/ha ([4]; 250 g/ha): 100%; pest or weed control at 250 g/ha [7]: 90%; pest or weed control at 250 g/ha (Setaria faberi (SETFA) [8]): 80%; pest or weed control at 250 g/ha [9]: 90%
5 | C#CCC1C(=O)C(c2c(C)cc(C)cc2C)C(=O)C1CC#C (centres unmarked) [Compound A42] | – | – | – | – | – | – | – | – | – | – | – | – | 50% | – | 0% | – | 80% | – | – | – | pest or weed control at 500 g/ha (Lolium perenne (LOLPE) [3]; 500 g/ha): 100%; pest or weed control at 500 g/ha ([4]; 500 g/ha): 100%; pest or weed control at 500 g/ha ([5]; 500 g/ha): 70%; pest or weed control at 500 g/ha ([6]; 500 g/ha): 100%; pest or weed control at 500 g/ha ([7]; 500 g/ha): 100%; pest or weed control at 500 g/ha (Setaria faberi (SETFA) [8]; 500 g/ha): 80%; pest or weed control at 500 g/ha ([9]; 500 g/ha): 80%; pest or weed control at 500 g/ha ([10]; application rate 500 g/ha): 70%; pest or weed control at 500 g/ha (Avena fatua (AVEFA); application rate 500 g/ha): 50%; pest or weed control at 500 g/ha (Lolium perenne (LOLPE) [11]; application rate 500 g/ha): 100%
